A short description of the test: Binding affinity against bacterial 16S rRNA using mass spectrometry based assay. The arrangement: species or system Escherichia coli.
Usually Kd stands for the equilibrium constant for the complex coming apart. A lower Kd goes with tighter binding. Consider `CN(CCCCCCN(C)CC(O)CO[C@H]1O[C@H](CN)[C@@H](O)[C@H](O)[C@H]1N)CC(O)CO[C@@H]1O[C@H](CN)[C@@H](O)[C@H](O)[C@H]1N` (stereo partly drawn), for which binding was characterised by a dissociation constant (Kd) of 11 µM.
As for `NC[C@H]1O[C@H](OCC(O)CN2CCN(CC(O)CO[C@H]3O[C@H](CN)[C@@H](O)[C@H](O)[C@H]3N)CC2)[C@H](N)[C@@H](O)[C@@H]1O` (stereo partly drawn), binding was put at a Kd of 32 µM.
On to `CN(CCN(C)CC(O)CO[C@H]1[C@H](O)[C@@H](O)[C@H](N)C[C@@H]1N)CC(O)CO[C@H]1[C@H](O)[C@@H](O)[C@H](N)C[C@@H]1N` (stereo partly drawn), for which the dissociation constant Kd stood at 57 µM.
The molecule `CN(CCN(C)CC(O)CO[C@H]1O[C@H](CN)[C@@H](O)[C@H](O)[C@H]1N)CC(O)CO[C@@H]1O[C@H](CN)[C@@H](O)[C@H](O)[C@H]1N` (stereo partly drawn) registered a Kd of 20 µM.
Molecule `CN(CCCCN(C)CC(O)CO[C@H]1[C@H](O)[C@@H](O)[C@H](N)C[C@@H]1N)CC(O)CO[C@H]1O[C@H](CO)[C@@H](O)[C@H](O)[C@H]1N` (stereo partly drawn) came in with a dissociation constant Kd of 54 µM.
As to `N[C@@H]1C[C@H](N)[C@@H](OC(=O)CCCC(=O)O[C@H]2[C@H](O)[C@@H](O)[C@H](N)C[C@@H]2N)[C@H](O)[C@H]1O`, the equilibrium dissociation constant (Kd) was determined as 105 µM.
Turning to `CN(CCCCCCN(C)CC(O)CO[C@H]1[C@H](O)[C@@H](O)[C@H](N)C[C@@H]1N)CC(O)CO[C@H]1O[C@H](CO)[C@@H](O)[C@H](O)[C@H]1N` (stereo partly drawn), binding was put at a Kd of 39 µM.
Molecule `C=CCO[C@H]1O[C@H](CN)C(O)[C@H](O)[C@H]1N` (stereo partly drawn) gave a Kd of 327 µM. Compared with the last molecule, the Kd is about 8.4-fold higher.
With `CN(CCCCN(C)CC(O)CO[C@H]1[C@H](O)[C@@H](O)[C@H](N)C[C@@H]1N)CC(O)CO[C@H]1[C@H](O)[C@@H](O)[C@H](N)C[C@@H]1N` (stereo partly drawn), the equilibrium dissociation constant (Kd) turned out to be 16 µM.
`CN(CCCCCCN(C)CC(O)CO[C@H]1[C@H](O)[C@@H](O)[C@H](N)C[C@@H]1N)CC(O)CO[C@H]1[C@H](O)[C@@H](O)[C@H](N)C[C@@H]1N` (stereo partly drawn) registered a Kd of 21 µM.
As to `CN(CCCCN(C)CC(O)CO[C@@H]1[C@@H](O)[C@H](N)C[C@H](N)[C@H]1O)CC(O)CO[C@H]1O[C@H](CN)[C@@H](O)[C@H](O)[C@H]1N` (stereo partly drawn), the Kd was 25 µM.
Turning to `N[C@@H]1C[C@H](N)[C@@H](O)[C@H](OCC(O)CNCCCCNCC(O)CO[C@@H]2[C@@H](O)[C@H](N)C[C@H](N)[C@H]2O)[C@H]1O` (stereo partly drawn), the affinity, expressed as Kd, was 96 µM.
Molecule `N[C@@H]1C[C@H](N)[C@@H](O)[C@H](O)[C@H]1O` yielded a Kd of 130 µM.
To `CN(CCN(C)CC(O)CO[C@H]1[C@H](O)[C@@H](O)[C@H](N)C[C@@H]1N)CC(O)CO[C@H]1O[C@H](CO)[C@@H](O)[C@H](O)[C@H]1N` (stereo partly drawn) belongs 335 µM; to `CN(CCCCCCN(C)CC(O)CO[C@H]1O[C@H](CO)[C@@H](O)[C@H](O)[C@H]1N)CC(O)CO[C@@H]1O[C@H](CO)[C@@H](O)[C@H](O)[C@H]1N` (stereo partly drawn), 52 µM.
The molecule `CN(CCCCN(C)CC(O)CO[C@@H]1[C@@H](O)[C@H](N)C[C@H](N)[C@H]1O)CC(O)CO[C@H]1O[C@H](CO)[C@@H](O)[C@H](O)[C@H]1N` (stereo partly drawn) gave a Kd of 29 µM.
`CN(CCN(C)CC(O)CO[C@H]1O[C@H](CO)[C@@H](O)[C@H](O)[C@H]1N)CC(O)CO[C@@H]1O[C@H](CO)[C@@H](O)[C@H](O)[C@H]1N` (stereo partly drawn) displayed a Kd of 146 µM.
Consider `C=CCO[C@H]1O[C@H](CO)[C@@H](O)[C@H](O)[C@H]1N`, for which the Kd is 1590 µM.
As to `CN(CCCCN(C)CC(O)CO[C@H]1[C@H](O)[C@@H](O)[C@H](N)C[C@@H]1N)CC(O)CO[C@H]1O[C@H](CN)[C@@H](O)[C@H](O)[C@H]1N` (stereo partly drawn), binding was put at a Kd of 13 µM.
In the case of `CN(CCCCCCN(C)CC(O)CO[C@H]1[C@H](O)[C@@H](O)[C@H](N)C[C@@H]1N)CC(O)CO[C@H]1O[C@H](CN)[C@@H](O)[C@H](O)[C@H]1N` (stereo partly drawn), the Kd worked out at 32 µM.
In the case of `CN(CCCCN(C)CC(O)CO[C@H]1O[C@H](CO)[C@@H](O)[C@H](O)[C@H]1N)CC(O)CO[C@@H]1O[C@H](CO)[C@@H](O)[C@H](O)[C@H]1N` (stereo partly drawn) it was 45 µM; in that of `CN(CCN(C)CC(O)CO[C@H]1[C@H](O)[C@@H](O)[C@H](N)C[C@@H]1N)CC(O)CO[C@H]1O[C@H](CN)[C@@H](O)[C@H](O)[C@H]1N` (stereo partly drawn), 47 µM; in that of `CN(CCCCN(C)CC(O)CO[C@H]1O[C@H](CN)[C@@H](O)[C@H](O)[C@H]1N)CC(O)CO[C@@H]1O[C@H](CN)[C@@H](O)[C@H](O)[C@H]1N` (stereo partly drawn), 16 µM.

Source of the values: ChEMBL document CHEMBL1136346, “Synthesis of linked carbohydrates and evaluation of their binding for 16S RNA by mass spectrometry” (Bioorg Med Chem Lett, 2003).
